Results from patent US20030104507A1, “Method for detection of ATP” (priority 2001, published 2003).

Tests used:
LucPpy = biological target: T1, LucPpy (Photinus pyralis, UniProt P08659); assay: Stability of reagent composition with LucPpy and detergent (RT, pH 7.0); type: biochemical; conditions: for Average Relative Light Units / Percent of Luminescence Remaining: LucPpy
T1 construct: purchased Promega E170A
Summary of the method: (§1)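 Reagent with 50 μg/ml luciferase, luciferin, MgSO4, buffer and detergent at varying concentrations held at about 23° C; enzyme added just before first read. At timepoints, aliquots mixed 1:1 with media containing ATP and luminescence read immediately (0.5 s/well, triplicate); reaction half-lives and percent of original luminescence derived.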

LucPpe2m146 = assay: Stability of reagent composition with LucPpe2m146 and detergent (RT, pH 7.0); type: biochemical, Photuris pennsylvanica
Summary of the method: as §1

CCCCCCCCCCCCOS(=O)(=O)[O-].[Na+] [SDS, Sodium dodecyl sulfate]
Half-life of Luminescence Activity (LucPpy; Common firefly luciferase (P. pyralis), conc. 0.050): no activity | Average Relative Light Units (LucPpy; 0.002%, 0.75 min (head r32)): 640.290 rlu | Percent of Luminescence Remaining (LucPpy; 0.002%, 0.75 min (times of Table I r32)): 100.00% | Average Relative Light Units (LucPpy; 0.002%, 38 min (head r32)): 190.860 rlu | Percent of Luminescence Remaining (LucPpy; 0.002%, 38 min (times of Table I r32)): 29.81% | Average Relative Light Units (LucPpy; 0.002%, 70 min (head r32)): 84.210 rlu | Percent of Luminescence Remaining (LucPpy; 0.002%, 70 min (times of Table I r32)): 13.15% | Average Relative Light Units (LucPpy; 0.002%, 94 min (head r32)): 47.210 rlu | Percent of Luminescence Remaining (LucPpy; 0.002%, 94 min (times of Table I r32)): 7.37% | Average Relative Light Units (LucPpy; 0.002%, 122 min (head r32)): 25.630 rlu | Percent of Luminescence Remaining (LucPpy; 0.002%, 122 min (times of Table I r32)): 4.0% | Average Relative Light Units (LucPpy; 0.01%, 0.75 min (head r18)): 0.175 rlu | Average Relative Light Units (LucPpy; 0.01%, 0.75 min (head r32)): 17.584 rlu | Percent of Luminescence Remaining (LucPpy; 0.01%, 0.75 min (times of Table I r18)): 100.00% | Average Relative Light Units (LucPpy; 0.01%, 10 min (head r18)): 0.016 rlu | Percent of Luminescence Remaining (LucPpy; 0.01%, 10 min (times of Table I r18)): 9.14% | Average Relative Light Units (LucPpy; 0.01%, 38 min (head r32)): 0.001 rlu | Average Relative Light Units (LucPpy; 0.05%, 0.75 min (head r5)): 0.007 rlu | Percent of Luminescence Remaining (LucPpy; 0.05%, 0.75 min (times of Table I r5)): 100.00% | Average Relative Light Units (LucPpe2m146; LucPpe2m146, 0.002%, 1.0 min (head r67)): 24265.83 rlu | Percent of Luminescence Remaining (LucPpe2m146; LucPpe2m146, 0.002%, 1.0 min (times of Table I r67)): 100.00% | Average Relative Light Units (LucPpe2m146; LucPpe2m146, 0.002%, 34 min (head r67)): 24213.97 rlu | Percent of Luminescence Remaining (LucPpe2m146; LucPpe2m146, 0.002%, 34 min (times of Table I r67)): 99.79% | Average Relative Light Units (LucPpe2m146; LucPpe2m146, 0.002%, 65 min (head r67)): 24725.73 rlu | Percent of Luminescence Remaining (LucPpe2m146; LucPpe2m146, 0.002%, 65 min (times of Table I r67)): 101.90% | Average Relative Light Units (LucPpe2m146; LucPpe2m146, 0.002%, 115 min (head r67)): 22654.87 rlu | Percent of Luminescence Remaining (LucPpe2m146; LucPpe2m146, 0.002%, 115 min (times of Table I r67)): 93.36% | Average Relative Light Units (LucPpe2m146; LucPpe2m146, 0.002%, 175 min (head r67)): 23856.73 rlu | Percent of Luminescence Remaining (LucPpe2m146; LucPpe2m146, 0.002%, 175 min (times of Table I r67)): 98.31% | Average Relative Light Units (LucPpe2m146; LucPpe2m146, 0.002%, 238 min (head r67)): 23425.5 rlu | Percent of Luminescence Remaining (LucPpe2m146; LucPpe2m146, 0.002%, 238 min (times of Table I r67)): 96.54% | Average Relative Light Units (LucPpe2m146; LucPpe2m146, 0.002%, 286 min (head r67)): 23275.6 rlu | Percent of Luminescence Remaining (LucPpe2m146; LucPpe2m146, 0.002%, 286 min (times of Table I r67)): 95.92% | Average Relative Light Units (LucPpe2m146; LucPpe2m146, 0.01%, 1.0 min (head r54)): 24.46 rlu | Percent of Luminescence Remaining (LucPpe2m146; LucPpe2m146, 0.01%, 1.0 min (times of Table I r54)): 100.00% | Average Relative Light Units (LucPpe2m146; LucPpe2m146, 0.01%, 34 min (head r54)): 27.85 rlu | Percent of Luminescence Remaining (LucPpe2m146; LucPpe2m146, 0.01%, 34 min (times of Table I r54)): 113.85% | Average Relative Light Units (LucPpe2m146; LucPpe2m146, 0.01%, 65 min (head r54)): 10.77 rlu | Percent of Luminescence Remaining (LucPpe2m146; LucPpe2m146, 0.01%, 65 min (times of Table I r54)): 44.02% | Average Relative Light Units (LucPpe2m146; LucPpe2m146, 0.01%, 115 min (head r54)): 6.45 rlu | Percent of Luminescence Remaining (LucPpe2m146; LucPpe2m146, 0.01%, 115 min (times of Table I r54)): 26.38% | Average Relative Light Units (LucPpe2m146; LucPpe2m146, 0.01%, 175 min (head r54)): 2.02 rlu | Percent of Luminescence Remaining (LucPpe2m146; LucPpe2m146, 0.01%, 175 min (times of Table I r54)): 8.25% | Average Relative Light Units (LucPpe2m146; LucPpe2m146, 0.01%, 238 min (head r54)): 2.44 rlu | Percent of Luminescence Remaining (LucPpe2m146; LucPpe2m146, 0.01%, 238 min (times of Table I r54)): 9.97% | Average Relative Light Units (LucPpe2m146; LucPpe2m146, 0.01%, 286 min (head r54)): 0.62 rlu | Percent of Luminescence Remaining (LucPpe2m146; LucPpe2m146, 0.01%, 286 min (times of Table I r54)): 2.53% | Average Relative Light Units (LucPpe2m146; LucPpe2m146, 0.05%, 15 min (head r41)): 0.018 rlu | Percent of Luminescence Remaining (LucPpe2m146; LucPpe2m146, 0.05%, 15 min (times of Table I r41)): 100.00% | Average Relative Light Units (LucPpe2m146; LucPpe2m146, 0.05%, 72 min (head r41)): 0.012 rlu | Percent of Luminescence Remaining (LucPpe2m146; LucPpe2m146, 0.05%, 72 min (times of Table I r41)): 65.68% | Average Relative Light Units (LucPpe2m146; LucPpe2m146, 0.05%, 124 min (head r41)): 0.001 rlu | Percent of Luminescence Remaining (LucPpe2m146; LucPpe2m146, 0.05%, 124 min (times of Table I r41)): 6.09% | Average Relative Light Units (LucPpe2m146; LucPpe2m146, 0.05%, 190 min (head r41)): 0.006 rlu | Percent of Luminescence Remaining (LucPpe2m146; LucPpe2m146, 0.05%, 190 min (times of Table I r41)): 35.06% | Average Relative Light Units (LucPpe2m146; LucPpe2m146, 0.05%, 251 min (head r41)): 0.016 rlu | Percent of Luminescence Remaining (LucPpe2m146; LucPpe2m146, 0.05%, 251 min (times of Table I r41)): 87.64%
